Structures can show the parent of a compound that is named as a salt.
Target: Cytoplasmic dynein 1 heavy chain 1 (Rattus norvegicus, UniProt P38650)
Experiment: Inhibition of MT-stimulated ATPase activity of rat cytoplasmic dynein heavy chain motor domain

Cytoplasmic dynein 1 heavy chain 1, sequence (P38650 whole entry, the tested form may be a part): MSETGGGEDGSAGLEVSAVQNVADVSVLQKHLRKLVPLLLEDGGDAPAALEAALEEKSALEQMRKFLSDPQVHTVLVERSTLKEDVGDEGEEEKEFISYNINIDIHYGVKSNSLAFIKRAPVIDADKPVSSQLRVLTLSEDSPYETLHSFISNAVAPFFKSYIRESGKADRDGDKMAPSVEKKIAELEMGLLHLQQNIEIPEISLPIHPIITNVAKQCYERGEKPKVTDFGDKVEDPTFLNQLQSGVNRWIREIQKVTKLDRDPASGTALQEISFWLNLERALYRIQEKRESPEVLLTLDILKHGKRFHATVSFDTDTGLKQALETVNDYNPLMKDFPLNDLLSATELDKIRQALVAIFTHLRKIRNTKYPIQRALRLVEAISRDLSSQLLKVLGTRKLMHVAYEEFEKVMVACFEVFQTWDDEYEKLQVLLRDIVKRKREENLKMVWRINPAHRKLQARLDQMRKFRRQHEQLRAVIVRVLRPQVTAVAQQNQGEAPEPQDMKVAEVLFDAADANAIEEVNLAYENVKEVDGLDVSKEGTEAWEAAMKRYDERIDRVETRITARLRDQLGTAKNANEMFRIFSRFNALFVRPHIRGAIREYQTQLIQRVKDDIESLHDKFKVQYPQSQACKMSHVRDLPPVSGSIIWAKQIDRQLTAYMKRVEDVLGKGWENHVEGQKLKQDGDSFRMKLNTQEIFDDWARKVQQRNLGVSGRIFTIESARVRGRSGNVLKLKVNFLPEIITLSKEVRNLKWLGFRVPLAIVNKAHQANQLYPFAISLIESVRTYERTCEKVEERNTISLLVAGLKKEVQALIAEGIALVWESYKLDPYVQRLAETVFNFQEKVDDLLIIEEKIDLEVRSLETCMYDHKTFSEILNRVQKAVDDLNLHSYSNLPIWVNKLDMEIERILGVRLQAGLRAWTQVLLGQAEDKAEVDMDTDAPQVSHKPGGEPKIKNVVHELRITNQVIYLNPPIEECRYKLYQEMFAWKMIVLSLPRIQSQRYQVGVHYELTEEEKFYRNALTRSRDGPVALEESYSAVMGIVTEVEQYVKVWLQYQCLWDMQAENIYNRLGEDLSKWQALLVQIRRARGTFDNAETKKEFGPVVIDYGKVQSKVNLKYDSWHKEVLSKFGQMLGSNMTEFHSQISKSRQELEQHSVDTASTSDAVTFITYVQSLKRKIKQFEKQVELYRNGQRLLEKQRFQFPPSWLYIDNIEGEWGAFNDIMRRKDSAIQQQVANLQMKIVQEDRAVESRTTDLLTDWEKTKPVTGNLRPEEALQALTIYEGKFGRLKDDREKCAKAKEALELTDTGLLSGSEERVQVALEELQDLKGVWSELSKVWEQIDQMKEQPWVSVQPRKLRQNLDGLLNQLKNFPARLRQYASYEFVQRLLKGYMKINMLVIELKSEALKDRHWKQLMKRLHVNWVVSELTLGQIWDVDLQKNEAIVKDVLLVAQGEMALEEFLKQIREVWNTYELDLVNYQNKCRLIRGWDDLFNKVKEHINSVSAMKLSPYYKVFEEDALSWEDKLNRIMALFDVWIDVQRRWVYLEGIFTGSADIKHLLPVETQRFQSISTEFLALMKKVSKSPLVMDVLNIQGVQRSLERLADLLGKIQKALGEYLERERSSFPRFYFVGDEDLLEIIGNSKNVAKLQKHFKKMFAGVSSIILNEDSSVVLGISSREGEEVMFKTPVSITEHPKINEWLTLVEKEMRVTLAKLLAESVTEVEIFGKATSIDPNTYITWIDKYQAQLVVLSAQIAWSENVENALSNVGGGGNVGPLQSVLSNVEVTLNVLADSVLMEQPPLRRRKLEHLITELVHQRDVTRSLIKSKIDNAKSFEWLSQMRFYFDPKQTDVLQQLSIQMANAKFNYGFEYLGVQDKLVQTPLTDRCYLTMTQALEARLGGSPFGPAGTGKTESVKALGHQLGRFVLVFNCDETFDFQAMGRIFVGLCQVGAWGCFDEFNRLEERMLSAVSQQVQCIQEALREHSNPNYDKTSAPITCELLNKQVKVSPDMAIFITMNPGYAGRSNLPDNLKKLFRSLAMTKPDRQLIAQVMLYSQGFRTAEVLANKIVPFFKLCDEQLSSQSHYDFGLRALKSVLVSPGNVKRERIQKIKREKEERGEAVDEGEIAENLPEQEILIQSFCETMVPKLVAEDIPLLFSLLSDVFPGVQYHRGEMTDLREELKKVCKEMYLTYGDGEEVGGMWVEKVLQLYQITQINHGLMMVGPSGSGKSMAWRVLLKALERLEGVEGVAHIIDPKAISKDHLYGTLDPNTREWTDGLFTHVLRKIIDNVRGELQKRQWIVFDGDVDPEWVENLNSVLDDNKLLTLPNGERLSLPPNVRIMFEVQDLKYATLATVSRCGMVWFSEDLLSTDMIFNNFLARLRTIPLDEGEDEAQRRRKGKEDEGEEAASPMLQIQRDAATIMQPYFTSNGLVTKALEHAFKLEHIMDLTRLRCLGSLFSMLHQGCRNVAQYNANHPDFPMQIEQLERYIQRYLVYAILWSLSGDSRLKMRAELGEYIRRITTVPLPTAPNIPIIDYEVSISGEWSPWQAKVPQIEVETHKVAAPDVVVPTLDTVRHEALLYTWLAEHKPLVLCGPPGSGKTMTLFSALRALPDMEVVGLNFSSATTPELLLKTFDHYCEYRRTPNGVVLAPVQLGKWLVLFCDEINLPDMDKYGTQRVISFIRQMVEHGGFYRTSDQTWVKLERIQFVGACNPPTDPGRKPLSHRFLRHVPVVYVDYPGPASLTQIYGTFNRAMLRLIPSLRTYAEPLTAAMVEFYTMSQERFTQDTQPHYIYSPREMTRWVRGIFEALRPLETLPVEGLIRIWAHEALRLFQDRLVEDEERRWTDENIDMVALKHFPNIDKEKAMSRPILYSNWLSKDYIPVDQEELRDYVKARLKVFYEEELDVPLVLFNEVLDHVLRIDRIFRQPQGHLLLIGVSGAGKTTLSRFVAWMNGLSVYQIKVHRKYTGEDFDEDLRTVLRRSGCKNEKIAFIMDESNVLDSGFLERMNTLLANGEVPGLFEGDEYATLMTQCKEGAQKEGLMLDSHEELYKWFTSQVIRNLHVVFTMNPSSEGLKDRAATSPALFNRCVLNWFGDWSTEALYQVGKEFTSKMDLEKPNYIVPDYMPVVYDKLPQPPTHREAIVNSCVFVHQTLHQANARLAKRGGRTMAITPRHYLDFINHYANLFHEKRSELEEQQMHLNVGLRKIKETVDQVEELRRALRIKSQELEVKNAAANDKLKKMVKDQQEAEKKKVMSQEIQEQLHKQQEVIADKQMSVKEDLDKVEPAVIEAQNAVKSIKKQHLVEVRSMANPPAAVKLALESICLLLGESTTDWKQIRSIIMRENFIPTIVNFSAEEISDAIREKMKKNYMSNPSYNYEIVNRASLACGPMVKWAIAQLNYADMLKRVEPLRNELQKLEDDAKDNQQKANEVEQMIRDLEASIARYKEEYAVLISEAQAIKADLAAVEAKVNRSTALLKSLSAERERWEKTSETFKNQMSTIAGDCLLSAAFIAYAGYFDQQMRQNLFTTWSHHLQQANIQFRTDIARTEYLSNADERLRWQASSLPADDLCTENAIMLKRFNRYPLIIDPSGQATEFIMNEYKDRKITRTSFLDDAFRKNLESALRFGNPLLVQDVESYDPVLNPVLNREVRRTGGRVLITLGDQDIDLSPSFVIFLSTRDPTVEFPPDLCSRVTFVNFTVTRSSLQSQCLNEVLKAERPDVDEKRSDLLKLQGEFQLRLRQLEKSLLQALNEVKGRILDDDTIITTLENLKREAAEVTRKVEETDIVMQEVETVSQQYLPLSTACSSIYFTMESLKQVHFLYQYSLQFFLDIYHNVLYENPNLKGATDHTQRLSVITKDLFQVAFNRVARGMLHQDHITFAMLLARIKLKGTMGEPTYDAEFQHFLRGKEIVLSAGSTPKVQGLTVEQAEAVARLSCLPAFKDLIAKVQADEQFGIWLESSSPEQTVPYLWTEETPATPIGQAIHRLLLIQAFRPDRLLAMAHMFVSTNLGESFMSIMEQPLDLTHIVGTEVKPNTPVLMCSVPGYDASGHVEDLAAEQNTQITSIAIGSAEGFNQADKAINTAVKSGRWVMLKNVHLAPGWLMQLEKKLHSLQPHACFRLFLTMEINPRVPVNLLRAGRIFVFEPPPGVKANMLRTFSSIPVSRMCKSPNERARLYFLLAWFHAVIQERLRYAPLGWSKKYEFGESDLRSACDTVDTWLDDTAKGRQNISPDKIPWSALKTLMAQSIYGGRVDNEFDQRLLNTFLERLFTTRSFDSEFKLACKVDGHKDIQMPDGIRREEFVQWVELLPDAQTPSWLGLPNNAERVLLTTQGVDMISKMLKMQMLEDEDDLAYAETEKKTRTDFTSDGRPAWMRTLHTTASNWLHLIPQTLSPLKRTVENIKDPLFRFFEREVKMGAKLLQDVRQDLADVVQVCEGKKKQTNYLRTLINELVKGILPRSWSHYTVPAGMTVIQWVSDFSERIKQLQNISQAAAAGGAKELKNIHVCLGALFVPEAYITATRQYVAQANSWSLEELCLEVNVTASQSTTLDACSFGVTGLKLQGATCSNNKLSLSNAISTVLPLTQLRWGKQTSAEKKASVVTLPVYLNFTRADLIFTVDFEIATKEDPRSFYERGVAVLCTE

IC50, > 50 µM:
NCCCOc1c(Br)cc(Br)cc1CC(N=O)C(=O)NCCc1c[nH]c2ccccc12 (stereo unspecified) [3-[2-(3-aminopropoxy)-3,5-dibromophenyl]-2-hydroxyimino-N-[2-(1H-indol-3-yl)ethyl]propanamide hydrochloride], NCCCOc1c(Br)cc(Br)cc1CC(N=O)C(=O)NCCc1ccc(Cl)cc1 (stereo unspecified) [3-[2-(3-aminopropoxy)-3,5-dibromophenyl]-N-[2-(4-chlorophenyl)ethyl]-2-hydroxyiminopropanamide hydrochloride], NCCCOc1c(Cl)cc(Cl)cc1CC(N=O)C(=O)NCCc1c[nH]c2ccccc12 (stereo unspecified) [3-[2-(3-aminopropoxy)-3,5-dichlorophenyl]-2-hydroxyimino-N-[2-(1H-indol-3-yl)ethyl]propanamide hydrochloride], NCCCOc1ccc(CC(N=O)C(=O)NCCc2c[nH]c3ccccc23)cc1Br (stereo unspecified) [3-[4-(3-aminopropoxy)-3-bromophenyl]-2-hydroxyimino-N-[2-(1H-indol-3-yl)ethyl]propanamide hydrochloride], NCCCOc1ccc(CC(N=O)C(=O)NCCc2ccc(Cl)cc2)cc1Br (stereo unspecified) [3-[4-(3-aminopropoxy)-3-bromophenyl]-N-[2-(4-chlorophenyl)ethyl]-2-hydroxyiminopropanamide hydrochloride], CCCCCCCCCCCCCC(=O)NCCCOc1c(Br)cc(CC(N=O)C(=O)NCCc2cnc(N)[nH]2)cc1Br (stereo unspecified) [Lipopurealin A]

From BindingDB's records for doi:10.1021/jm051030l (University of Pittsburgh, 2006)
